Results published in patent publication US20100234395A1, “UREIDE DERIVATIVE AND PHARMACEUTICAL APPLICATION THEREOF” (TORAY INDUSTRIES, INC., priority 2006, published 2010).
pIC50: −log10 of the molar value. Where two headings read alike, the source gives them in different places.

How the values were obtained:
ddY mice = experiment: Acetic acid writhing test in mice (analgesic effects); assay type: in vivo; conditions: for ED50: Mus musculus
Procedure: ddY mice were grown for at least 16 hours under fasting conditions while free water intake was allowed, and a solution of the test compound or a solvent was orally administered thereto (0.1 ml/10 g). As a solvent for a solution of the test compound, dimethyl sulfoxide (DMSO):Tween 80:27% hydroxypropyl-P-cyclodextrin (hereafter abbreviated to “HP-β-CD”) (1:1:8) or 27% HP-β-CD was used. A solution of 0.6% acetic acid (0.1 ml/10 g) was administered intraperitoneally 45 minutes after administration to induce a writhing reaction (i.e., a movement of stretching or arching the body). The number of the writhing reactions that had occurred for the period from 10 minutes after administration of the acetic acid solution to 10 minutes thereafter was counted, and the number of times was designated as an indicator of pain. The number of times of reactions in the group to which a solvent had been administered was designated as 100%, and the concentration of the test compound that had inhibited 50% of such reaction was designated as the ED50 value.
The compound of Reference Example 78 is disclosed in the claims of JP Patent Publication (kohyo) No. 2006-517535 A, the compounds of Reference Examples 93 and 199 are disclosed in the claims of JP Patent No. 3003148, and the compound of Reference Example 103 is disclosed in the claims of JP Patent Publication (kohyo) No. 2006-514095 A. Thus, these compounds were compared with the compounds of the present invention having similar structures in terms of analgesic effects with oral administration (Table 4) or subcutaneous administration (Table 5). Dimethyl sulfoxide (DMSO):Tween 80:27% HP-β-CD (1:1:8) or 27% HP-β-CD was used as a solvent for the test compound.

COX-1 = biological target: T1, COX-1 (Homo sapiens, UniProt P23219); experiment: Activity of inhibiting COX-1 in human blood (thromboxane B2 after ionomycin); assay type: cell-based; conditions: thromboxane B2 production
T1 construct: Human blood that had been sampled with the use of heparin (19 units/ml) was used; from tissue; host or cells: human whole blood (heparinised)
Procedure: Human blood that had been sampled with the use of heparin (19 units/ml) was used. Blood was fractionated to reaction tubes in amounts of 500 μl, the test compound or solvent was added thereto, and the resultants were incubated at 37° C. for 60 minutes. Dimethyl sulfoxide (DMSO) was used as a solvent for the test compound. Thereafter, ionomycin (30 nM) was added, and the reaction was allowed to proceed for 30 minutes. After the completion of the reaction, the supernatant (blood plasma) was recovered via centrifugation at 4° C., and the amount of thromboxane B2 in the plasma was quantified using a kit (519031, Cayman Chemical). The amount of thromboxane B2 produced via the addition of ionomycin was designated as 100%, and the concentration of the test compound that inhibits 50% of such reaction was represented by the IC50 value.

COX-2 = biological target: T2, COX-2 (Homo sapiens, UniProt P35354); experiment: Activity of inhibiting COX-2 in human blood (prostaglandin E2 after lipopolysaccharide); assay type: cell-based; conditions: prostaglandin E2 production
T2 construct: Human blood that had been sampled with the use of heparin (19 units/ml) was used; from tissue; host or cells: human whole blood (heparinised), aspirin-pretreated, stimulated with lipopolysaccharide
T2 sequence (P35354 18-604): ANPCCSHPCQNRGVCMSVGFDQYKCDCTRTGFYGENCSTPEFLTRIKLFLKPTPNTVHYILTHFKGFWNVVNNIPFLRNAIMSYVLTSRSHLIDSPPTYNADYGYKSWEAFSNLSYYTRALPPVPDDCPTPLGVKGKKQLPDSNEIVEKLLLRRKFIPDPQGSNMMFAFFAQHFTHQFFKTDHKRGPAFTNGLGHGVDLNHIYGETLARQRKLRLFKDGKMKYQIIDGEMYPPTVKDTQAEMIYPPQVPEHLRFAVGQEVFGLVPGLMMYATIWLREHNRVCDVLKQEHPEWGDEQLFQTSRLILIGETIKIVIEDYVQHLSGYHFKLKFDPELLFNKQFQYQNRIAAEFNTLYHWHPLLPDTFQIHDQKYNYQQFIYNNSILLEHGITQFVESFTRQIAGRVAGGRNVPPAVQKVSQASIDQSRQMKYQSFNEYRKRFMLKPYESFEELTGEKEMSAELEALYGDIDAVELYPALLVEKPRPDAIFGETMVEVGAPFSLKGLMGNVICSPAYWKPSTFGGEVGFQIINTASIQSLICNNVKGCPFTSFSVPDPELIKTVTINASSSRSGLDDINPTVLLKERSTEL
Procedure: Human blood that had been sampled with the use of heparin (19 units/ml) was used. Blood was fractionated to reaction tubes in amounts of 500 μl, aspirin (12 μg/ml) was added thereto, and the resultants were incubated at 37° C. for 6 hours. Thereafter, the test compound or solvent, and lipopolysaccharide (10 μg/ml) were added, and the reaction was allowed to proceed for 18 hours. After the completion of the reaction, the supernatant (blood plasma) was recovered via centrifugation at 4° C., and the amount of prostaglandin E2 in the plasma was quantified using a kit (514010, Cayman Chemical). Dimethyl sulfoxide (DMSO) was used as a solvent for the test compound. The amount of prostaglandin E2 produced via the addition of lipopolysaccharide was designated as 100%, and the concentration of the test compound that inhibits 50% of such reaction was represented by the IC50 value.

[1] = Table 4, oral administration, comparison with similar known compound, read-out: ED50 (mg/kg) [90% confidence limit]
[2] = oral administration 45 minutes before 0.6% acetic acid i.p., 50% inhibition of writhing reactions, read-out: ED50 (mg/kg)[90% confidence limit]
[3] = sc, Table 5, subcutaneous administration, read-out: ED50 (mg/kg) [90% confidence limit]

T1 sequence (P23219 24-599): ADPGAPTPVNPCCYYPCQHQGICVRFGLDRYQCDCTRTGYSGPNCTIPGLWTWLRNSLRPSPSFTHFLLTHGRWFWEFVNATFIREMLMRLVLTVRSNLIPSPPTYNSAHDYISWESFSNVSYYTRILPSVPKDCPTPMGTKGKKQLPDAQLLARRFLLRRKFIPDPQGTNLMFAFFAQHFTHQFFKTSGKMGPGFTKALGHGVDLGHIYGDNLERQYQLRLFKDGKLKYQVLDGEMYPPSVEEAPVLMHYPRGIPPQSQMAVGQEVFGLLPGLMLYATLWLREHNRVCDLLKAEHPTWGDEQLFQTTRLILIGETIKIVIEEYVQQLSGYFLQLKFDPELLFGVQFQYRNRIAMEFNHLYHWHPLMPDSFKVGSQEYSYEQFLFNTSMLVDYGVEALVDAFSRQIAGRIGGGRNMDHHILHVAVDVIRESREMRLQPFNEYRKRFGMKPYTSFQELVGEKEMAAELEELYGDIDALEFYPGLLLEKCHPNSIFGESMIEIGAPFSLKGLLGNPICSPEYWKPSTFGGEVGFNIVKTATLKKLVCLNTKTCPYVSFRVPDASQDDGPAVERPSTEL

pIC50 (COX-1)	pIC50 (COX-2)	SMILES	also measured
> 7.00	< 5.00	COc1ccc(-c2nc(C3CCN(C(=O)N(C)OC)CC3)oc2-c2ccc(OC)cc2)cc1 [Example 24, 4-(4,5-Bis(4-methoxyphenyl)oxazol-2-yl)-1-(N-methoxy-N-methylcarbamoyl)piperidine]	
> 7.00	< 5.00	COc1ccc(-c2cc(C3CCN(C(=O)N(C)O)CC3)[nH]c2-c2ccc(OC)cc2)cc1 [Example 34, 4-(4,5-Bis(4-methoxyphenyl)-1H-pyrrol-2-yl)-1-(N-hydroxy-N-methylcarbamoyl)piperidine]	
> 7.00	< 5.00	COc1ccc(-c2cc(C3CCN(C(=O)N(C)O)CC3)oc2-c2ccc(OC)cc2)cc1 [Example 38, 4-(4,5-bis(4-methoxyphenyl)furan-2-yl)-1-(N-hydroxy-N-methylcarbamoyl)piperidine]	
> 7.00	< 5.00	COc1ccc(-c2cc(C3CCN(C(=O)N(C)O)CC3)sc2-c2ccc(OC)cc2)cc1 [Example 39, 4-(4,5-Bis(4-methoxyphenyl)thiophen-2-yl)-1-(N-hydroxy-N-methylcarbamoyl)piperidine]	
> 7.00	< 5.00	COc1ccc(-c2nc(C3(C)CCN(C(=O)N(C)O)CC3)oc2-c2ccc(OC)cc2)cc1 [Example 42, 4-(4,5-Bis(4-methoxyphenyl)oxazol-2-yl)-1-(N-hydroxy-N-methylcarbamoyl)-4-methylpiperidine]	
> 7.00	< 5.00	COc1ccc(-c2nc(C3(c4ccccc4)CCN(C(=O)N(C)O)CC3)oc2-c2ccc(OC)cc2)cc1 [Example 48, 4-(4,5-Bis(4-methoxyphenyl)oxazol-2-yl)-(N-hydroxy-N-methylcarbamoyl)-4-phenylpiperidine]	
> 7.00	< 5.00	COc1ccc(-c2nc(C3(C)CCN(C(=O)N(C)O)CC3)sc2-c2ccc(OC)cc2)cc1 [Example 55, 4-(4,5-Bis(4-methoxyphenyl)thiazol-2-yl)-1-(N-hydroxy-N-methylcarbamoyl)-4-methylpiperidine]	
> 7.00	< 5.00	COc1ccc(-c2nc(C3CCN(C(=O)N(O)C(C)C)CC3)sc2-c2ccc(OC)cc2)cc1 [Example 60, 4-(4,5-Bis(4-methoxyphenyl)thiazol-2-yl)-1-(N-hydroxy-N-isopropylcarbamoyl)piperidine]	
> 7.00	< 5.00	COc1ccc(-c2nc(C3CCN(C(=O)N(C)OC)CC3)sc2-c2ccc(OC)cc2)cc1 [Example 61, 4-(4,5-Bis(4-methoxyphenyl)thiazol-2-yl)-1-(N-methoxy-N-methylcarbamoyl)piperidine]	
> 7.00	< 5.00	CCCC1(c2nc(-c3ccc(OC)cc3)c(-c3ccc(OC)cc3)o2)CCN(C(=O)N(C)O)CC1 [Example 74, 4-(1,5-Bis(4-methoxyphenyl)oxazol-2-yl)-4-propyl-1-(N-hydroxy-N-methylcarbamoyl)piperidine]	
> 7.00	< 5.00	COc1ccc(-c2nc(C3CCN(C(=O)N(C)O)CC3)oc2-c2ccc(OCCO)cc2)cc1 [Example 77]	

The remaining lines, values behind:

SMILES	pIC50 (COX-1)	pIC50 (COX-2)	also measured
COc1ccc(-c2nc(C3CCN(C(=O)N(C)O)CC3)oc2-c2ccc(OC)cc2)cc1 [Example 1, 4-(4,5-Bis(4-methoxyphenyl)oxazol-2-yl)-1-(N-hydroxy-N-methylcarbamoyl)piperidine]	> 7.00	< 5.00	ED50 (ddY mice; [1]): 2.02 mg/kg; ED50 (ddY mice; [2]): 2.02 mg/kg; activity ratio (analgesic effects) (ddY mice; oral administration, compared with Reference Example 78 (sulfate)): at least 49 times
COc1ccc(-c2oc(C3CCN(C(=O)N(C)O)CC3)nc2-c2ccc(C)cc2)cc1 [Example 4, 4-(5-(4-Methoxyphenyl)-4-(4-tolyl)oxazol-2-yl)-1-(N-hydroxy-N-methylcarbamoyl)piperidine]	> 7.00	< 5.00	ED50 (ddY mice; [2]): 4.02 mg/kg
CN(O)C(=O)N1CCC(c2nc(-c3ccc(F)cc3)c(-c3ccccc3)o2)CC1 [Example 13, 4-(4-(4-Fluorophenyl)-5-phenyloxazol-2-yl)-1-(N-hydroxy-N-methylcarbamoyl)piperidine]			ED50 (ddY mice; [2]): 2.62 mg/kg
COc1ccc(-c2nc(C3CCN(C(=O)N(O)C(C)C)CC3)oc2-c2ccc(OC)cc2)cc1 [Example 15, 4-(4,5-Bis(4-methoxyphenyl)oxazol-2-yl)-1-(N-isopropyl-N-hydroxycarbamoyl)piperidine]	> 7.00	< 5.00	
COc1ccc(-c2nc(C3CCN(C(=O)N(O)C4CCCCC4)CC3)oc2-c2ccc(OC)cc2)cc1 [Example 16, 4-(4,5-Bis(4-methoxyphenyl)oxazol-2-yl)-1-(N-cyclohexyl-N-hydroxycarbamoyl)piperidine]	> 7.00	< 5.00	
CCN(O)C(=O)N1CCC(c2nc(-c3ccc(OC)cc3)c(-c3ccc(OC)cc3)o2)CC1 [Example 19, 4-(4,5-Bis(4-methoxyphenyl)oxazol-2-yl)-1-(N-hydroxy-N-ethylcarbamoyl)piperidine]	> 7.00	< 5.00	
COc1ccc(-c2nc(N3CCN(C(=O)N(C)O)CC3)sc2-c2ccc(OC)cc2)cc1 [Example 57, 4-(4,5-Bis(4-methoxyphenyl)thiazol-2-yl)-1-(N-hydroxy-N-methylcarbamoyl)piperazine]			ED50 (ddY mice; [2]): 9.79 mg/kg
COc1ccc(-n2nc(C3CCN(C(=O)N(C)O)CC3)cc2-c2cccnc2OC)cc1 [Example 67, 4-(1-(4-Methoxyphenyl)-5-(2-methoxypyridin-3-yl)-1H-pyrazol-3-yl)-1-(N-hydroxy-N-methylcarbamoyl)piperidine]			ED50 (ddY mice; [2]): 2.51 mg/kg
COc1ccc(-c2cc(C3CC4CCC(C3)N4C(=O)N(C)O)nn2-c2ccc(OC)cc2)cc1 (stereo not drawn) [Example 68, 3-(1,5-Bis(4-methoxyphenyl)-1H-pyrazol-3-yl)-8-(N-hydroxy-N-methylcarbamoyl)-8-azabicyclo[3.2.1]octane]	> 7.00	< 5.00	
CNC(=O)N1CCC(c2nc(-c3ccc(OC)cc3)c(-c3ccc(OC)cc3)s2)CC1 [Reference Example1 199, reference compound]			ED50 (ddY mice; [3]): 34.4 mg/kg
COc1ccc(-c2nc(C3CCNCC3)oc2-c2ccc(OC)cc2)cc1 [Reference Example 78, 4-(4,5-Bis(4-methoxyphenyl)oxazol-2-yl)piperidine, reference compound]			ED50 (ddY mice; [1]): > 100 mg/kg
COc1ccc(-c2nc(C3CCNCC3)sc2-c2ccc(OC)cc2)cc1 [Reference Example 93, 4-(4,5-Bis(4-methoxyphenyl)thiazol-2-yl)piperidine, reference compound]			ED50 (ddY mice; [3]): > 100 mg/kg
COc1ccc(-c2cc(C3CCNCC3)nn2-c2ccc(OC)cc2)cc1 [Reference Example 103, 4-(1,5-Bis(4-methoxyphenyl)-1H-pyrazol-3-yl)piperidine, reference compound]			ED50 (ddY mice; [3]): > 100 mg/kg
